These results are taken from ChEMBL document CHEMBL5365452, “Discovery of (S)-N1-(thiazol-2-yl) pyrrolidine-1,2-dicarboxamide derivatives targeting PI3Ka/HDAC6 for the treatment of cancer” (Bioorg Med Chem Lett, 2023).

In general, IC50 refers to the midpoint of a concentration-inhibition curve. Read a low IC50 as greater potency.

Bounds are passed on as bounds.

In one assay the test system is MCF7. In words: Antiproliferative activity against human MCF7 cells.
The target in assay [1] is Phosphatidylinositol 4,5-bisphosphate 3-kinase catalytic subunit gamma isoform (Homo sapiens, UniProt P48736). In words: Inhibition of PI3Kgamma (unknown origin).
Phosphatidylinositol 4,5-bisphosphate 3-kinase catalytic subunit gamma isoform, sequence (P48736 whole entry, canonical isoform): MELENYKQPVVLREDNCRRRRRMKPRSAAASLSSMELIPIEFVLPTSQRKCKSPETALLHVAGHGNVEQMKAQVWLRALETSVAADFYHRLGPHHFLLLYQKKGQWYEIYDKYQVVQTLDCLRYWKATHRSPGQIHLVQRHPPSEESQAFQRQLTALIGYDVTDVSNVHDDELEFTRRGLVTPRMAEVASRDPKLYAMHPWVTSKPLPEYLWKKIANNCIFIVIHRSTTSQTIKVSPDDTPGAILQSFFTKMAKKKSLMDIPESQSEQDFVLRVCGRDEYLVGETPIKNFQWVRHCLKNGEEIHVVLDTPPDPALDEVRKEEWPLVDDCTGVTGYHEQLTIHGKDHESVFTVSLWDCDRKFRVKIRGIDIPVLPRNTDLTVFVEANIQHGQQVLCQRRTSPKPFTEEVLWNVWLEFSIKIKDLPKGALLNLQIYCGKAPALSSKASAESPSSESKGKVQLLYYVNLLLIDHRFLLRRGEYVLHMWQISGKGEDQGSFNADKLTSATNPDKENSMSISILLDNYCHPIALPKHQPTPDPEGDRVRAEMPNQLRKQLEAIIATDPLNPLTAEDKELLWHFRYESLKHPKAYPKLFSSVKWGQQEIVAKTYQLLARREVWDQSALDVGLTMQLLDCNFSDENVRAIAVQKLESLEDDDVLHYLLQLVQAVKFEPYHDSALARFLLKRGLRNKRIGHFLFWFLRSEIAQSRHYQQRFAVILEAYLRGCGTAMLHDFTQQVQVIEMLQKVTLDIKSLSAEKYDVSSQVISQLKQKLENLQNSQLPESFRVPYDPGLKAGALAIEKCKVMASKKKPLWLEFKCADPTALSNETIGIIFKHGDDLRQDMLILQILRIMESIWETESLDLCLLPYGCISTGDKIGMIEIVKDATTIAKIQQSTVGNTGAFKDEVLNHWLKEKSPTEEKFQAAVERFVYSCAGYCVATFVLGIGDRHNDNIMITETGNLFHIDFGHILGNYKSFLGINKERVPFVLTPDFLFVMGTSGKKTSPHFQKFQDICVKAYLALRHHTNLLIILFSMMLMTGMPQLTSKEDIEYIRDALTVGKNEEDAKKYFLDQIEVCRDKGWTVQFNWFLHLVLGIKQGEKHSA
A further assay addresses T1, Histone deacetylase 8 (Homo sapiens, UniProt Q9BY41).
T1 sequence (Q9BY41 whole entry): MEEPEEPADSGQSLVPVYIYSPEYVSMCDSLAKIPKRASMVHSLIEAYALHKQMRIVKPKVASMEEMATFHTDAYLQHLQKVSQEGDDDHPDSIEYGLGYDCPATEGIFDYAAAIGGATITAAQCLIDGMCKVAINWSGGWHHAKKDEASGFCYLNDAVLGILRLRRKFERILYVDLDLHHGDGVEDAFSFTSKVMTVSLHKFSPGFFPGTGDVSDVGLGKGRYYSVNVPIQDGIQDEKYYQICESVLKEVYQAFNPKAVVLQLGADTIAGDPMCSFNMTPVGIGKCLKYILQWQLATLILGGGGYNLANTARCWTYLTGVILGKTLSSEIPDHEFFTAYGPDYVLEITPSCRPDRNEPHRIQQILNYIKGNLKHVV
In words: Inhibition of HDAC8 (unknown origin).

The target of a further assay is T2, Histone deacetylase 11 (Homo sapiens, UniProt Q96DB2).
T2 sequence (Q96DB2 whole entry): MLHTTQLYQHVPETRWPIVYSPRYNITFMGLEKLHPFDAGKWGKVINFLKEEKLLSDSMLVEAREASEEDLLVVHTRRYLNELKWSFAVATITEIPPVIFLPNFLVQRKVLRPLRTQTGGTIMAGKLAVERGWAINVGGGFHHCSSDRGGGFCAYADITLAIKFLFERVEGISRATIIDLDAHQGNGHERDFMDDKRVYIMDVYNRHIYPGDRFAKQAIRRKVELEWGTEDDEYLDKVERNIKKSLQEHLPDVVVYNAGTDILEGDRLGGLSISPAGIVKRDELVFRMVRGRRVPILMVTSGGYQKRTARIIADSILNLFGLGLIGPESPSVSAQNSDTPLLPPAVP
In words: Inhibition of HDAC11 (unknown origin).

Assay [2] concerns the target Phosphatidylinositol 4,5-bisphosphate 3-kinase catalytic subunit beta isoform (Homo sapiens, UniProt P42338). In words: Inhibition of PI3Kbeta (unknown origin).
The target of another assay is Histone deacetylase 1 (Homo sapiens, UniProt Q13547). In words: Inhibition of HDAC1 (unknown origin).
Histone deacetylase 1, sequence (Q13547 whole entry, canonical isoform): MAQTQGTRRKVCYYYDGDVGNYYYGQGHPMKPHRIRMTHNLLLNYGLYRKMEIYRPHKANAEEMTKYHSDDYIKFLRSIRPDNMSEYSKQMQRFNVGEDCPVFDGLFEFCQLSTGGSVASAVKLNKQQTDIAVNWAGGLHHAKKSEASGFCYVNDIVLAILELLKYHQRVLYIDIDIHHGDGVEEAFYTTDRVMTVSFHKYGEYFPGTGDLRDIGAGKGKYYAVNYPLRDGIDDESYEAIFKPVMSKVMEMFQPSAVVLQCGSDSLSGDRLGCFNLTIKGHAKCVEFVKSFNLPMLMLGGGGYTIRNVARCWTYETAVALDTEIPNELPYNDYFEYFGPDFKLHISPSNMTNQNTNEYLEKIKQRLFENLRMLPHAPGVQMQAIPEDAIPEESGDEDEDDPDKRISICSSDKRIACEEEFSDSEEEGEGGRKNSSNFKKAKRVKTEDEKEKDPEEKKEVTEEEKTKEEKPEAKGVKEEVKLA
For assay [3], the target named is T3, Phosphatidylinositol 4,5-bisphosphate 3-kinase catalytic subunit delta isoform (Homo sapiens, UniProt O00329).
T3 sequence (O00329 whole entry): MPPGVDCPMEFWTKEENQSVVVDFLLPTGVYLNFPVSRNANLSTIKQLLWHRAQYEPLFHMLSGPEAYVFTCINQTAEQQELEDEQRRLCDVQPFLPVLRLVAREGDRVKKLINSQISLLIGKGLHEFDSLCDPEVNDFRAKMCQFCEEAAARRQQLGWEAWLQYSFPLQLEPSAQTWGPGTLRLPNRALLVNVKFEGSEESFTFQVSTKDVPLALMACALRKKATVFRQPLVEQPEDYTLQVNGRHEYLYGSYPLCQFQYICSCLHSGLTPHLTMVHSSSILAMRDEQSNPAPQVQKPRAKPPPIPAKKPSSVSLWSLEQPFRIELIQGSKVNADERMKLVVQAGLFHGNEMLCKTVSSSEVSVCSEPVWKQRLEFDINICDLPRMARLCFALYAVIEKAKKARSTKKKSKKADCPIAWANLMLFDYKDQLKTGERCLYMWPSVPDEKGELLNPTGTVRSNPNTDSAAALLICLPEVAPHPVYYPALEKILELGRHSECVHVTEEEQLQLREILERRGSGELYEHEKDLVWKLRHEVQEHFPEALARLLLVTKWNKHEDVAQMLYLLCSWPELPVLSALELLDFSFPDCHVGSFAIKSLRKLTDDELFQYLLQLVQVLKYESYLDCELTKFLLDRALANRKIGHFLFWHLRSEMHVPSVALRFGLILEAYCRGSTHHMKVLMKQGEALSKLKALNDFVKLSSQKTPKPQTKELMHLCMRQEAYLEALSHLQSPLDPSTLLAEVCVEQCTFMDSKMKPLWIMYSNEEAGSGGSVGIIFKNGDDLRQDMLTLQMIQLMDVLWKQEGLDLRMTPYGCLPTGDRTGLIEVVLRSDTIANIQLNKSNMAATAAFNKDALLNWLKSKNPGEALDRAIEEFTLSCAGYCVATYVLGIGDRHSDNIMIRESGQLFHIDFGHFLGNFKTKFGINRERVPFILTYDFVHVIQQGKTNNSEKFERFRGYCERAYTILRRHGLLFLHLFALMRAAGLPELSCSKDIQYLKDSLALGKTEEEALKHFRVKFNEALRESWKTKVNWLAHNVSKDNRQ
In words: Inhibition of PI3Kdelta (unknown origin).

The next assay deals with T47D. In words: Antiproliferative activity against human T47D cells.
The next assay has as its system L-363. In words: Antiproliferative activity against human L-363 cells.

Phosphatidylinositol 4,5-bisphosphate 3-kinase catalytic subunit beta isoform, sequence (P42338 whole entry, canonical isoform): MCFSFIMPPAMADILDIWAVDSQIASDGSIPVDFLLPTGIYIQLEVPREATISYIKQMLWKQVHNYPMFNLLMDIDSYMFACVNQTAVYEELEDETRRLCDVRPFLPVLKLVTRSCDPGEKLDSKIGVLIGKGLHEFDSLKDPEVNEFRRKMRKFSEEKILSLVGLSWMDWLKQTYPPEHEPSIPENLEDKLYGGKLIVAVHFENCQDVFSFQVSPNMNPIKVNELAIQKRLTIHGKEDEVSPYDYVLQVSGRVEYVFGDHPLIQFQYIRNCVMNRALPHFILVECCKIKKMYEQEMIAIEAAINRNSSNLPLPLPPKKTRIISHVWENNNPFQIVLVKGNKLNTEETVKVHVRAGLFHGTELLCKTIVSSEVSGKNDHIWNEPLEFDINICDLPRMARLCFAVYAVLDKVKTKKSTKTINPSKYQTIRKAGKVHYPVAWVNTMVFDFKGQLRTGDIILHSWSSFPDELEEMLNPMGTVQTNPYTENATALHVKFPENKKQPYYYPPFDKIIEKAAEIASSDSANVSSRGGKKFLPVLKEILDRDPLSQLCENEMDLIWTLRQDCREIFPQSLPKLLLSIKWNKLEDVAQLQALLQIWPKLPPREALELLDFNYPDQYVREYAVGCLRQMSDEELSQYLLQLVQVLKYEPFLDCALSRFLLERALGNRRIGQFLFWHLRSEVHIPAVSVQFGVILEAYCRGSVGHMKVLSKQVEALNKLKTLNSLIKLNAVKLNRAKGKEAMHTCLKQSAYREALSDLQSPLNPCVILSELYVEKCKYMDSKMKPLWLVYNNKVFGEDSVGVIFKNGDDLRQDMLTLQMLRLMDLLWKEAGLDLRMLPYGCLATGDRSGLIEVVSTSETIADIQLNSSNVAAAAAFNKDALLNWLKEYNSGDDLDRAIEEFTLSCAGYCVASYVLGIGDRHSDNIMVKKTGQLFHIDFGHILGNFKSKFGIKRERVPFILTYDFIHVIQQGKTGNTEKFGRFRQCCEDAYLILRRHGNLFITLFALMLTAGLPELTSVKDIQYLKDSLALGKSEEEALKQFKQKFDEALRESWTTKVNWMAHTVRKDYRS

In turn, `O=C(CCCCCCC(=O)Nc1ccccc1)NO` [VORINOSTAT] had a concentration for half-maximal inhibition (IC50) in the assay on MCF7 of 3560 nM.
Consider `Cc1nc(NC(=O)N2C[C@H](NS(=O)(=O)Cc3ccc(C(=O)NO)cc3)C[C@H]2C(N)=O)sc1-c1ccnc(C(C)(C)C(F)(F)F)c1`, for which the IC50 in [1] was 285 nM; against Histone deacetylase 8, > 2000 nM; against Histone deacetylase 11 it was 586 nM; in [2], 880 nM; against Histone deacetylase 1 it was > 2000 nM; in assay [3], 42 nM.
Regarding `Cc1nc(NC(=O)N2CCC[C@H]2C(N)=O)sc1-c1ccnc(C(C)(C)C(F)(F)F)c1` [ALPELISIB], the IC50 was determined as 2300 nM in the assay with T47D, 250 nM in the assay with MCF7 and 260 nM with L-363.
Turning to `Cc1nc(NC(=O)N2C[C@H](NC(=O)c3ccc(C(=O)NO)cn3)C[C@H]2C(N)=O)sc1-c1ccnc(C(C)(C)C(F)(F)F)c1`, the IC50 was 318 nM in assay [1]; > 2000 nM against Histone deacetylase 8; > 2000 nM against Histone deacetylase 11; > 1000 nM in assay [2]; 471 nM at Histone deacetylase 1; 214 nM in [3].
